Data on 94 compounds can be found in ChEMBL document CHEMBL3507680, “University of Dundee, Gates Library screen for HepG2 cell viability”.

The series in a line: Human HepG2 cell viability assay in 384 well format. It counts as toxicity, cell-based. Particulars: HepG2 cells, read-out: Inhibition. Also noted: dose 125 nL, time 70.5 hour; concentration not given beside the values.
For the compound `CSc1ccccc1C(=O)C1CCCN(Cc2ccccn2)C1` (centres undefined), the cytotoxicity at 70.5 h is -2.76%.

`FC(F)(F)COCCN1CCCC(c2noc(C3CC3)n2)C1` (centres undefined): the cytotoxicity at 70.5 h is -10.4%. Turning to `O=C(COc1cccc(Br)c1)N1CCN(c2nccs2)CC1`, the cytotoxicity at 70.5 h stood at 14.3%. `CCn1cc(NC(=O)NC2CCCc3c2cnn3CCO)cn1` (centres undefined): the cytotoxicity at 70.5 h was -2.96%. For `COc1ncccc1C(=O)N1CCC(CNC(C)=O)CC1` the value was -11.5%; for `O=C(NCCNS(=O)(=O)c1ccc2c(c1)CCCC2)c1ccoc1`, -8.42%. The value for `Cc1ccc(S(=O)(=O)NCCNC(=O)c2ccoc2)cc1F` was 11.8%; that for `CN(C)CCn1c(=O)oc2ccc(NC(=O)c3cc(Cl)c[nH]3)cc21` was -2.49%; that for `O=C(CCNS(=O)(=O)c1ccc2c(c1)CCCC2)NCc1ccoc1` was -11.5%. For `CN(C)CCn1c(=O)oc2ccc(NC(=O)CC(C)(C)C)cc21` the value was -6.79%; for `CCN(C)c1ccc(C(=O)N(CCOC)Cc2ccccn2)cc1`, 14.7%.

For the compound `CN(C)CCn1c(=O)oc2ccc(NC(=O)C3CCCO3)cc21` (centres undefined), the cytotoxicity at 70.5 h was 1.22%. The value for `O=C(NCc1ccncc1)N(Cc1ccccc1F)C1CC1` was 13%; that for `Cc1cc(C)n(CC2CCCCN2CC(=O)Nc2nncs2)n1` (centres undefined) was -7.4%; that for `CN(C)C(=O)CN(C)C(=O)c1cnc(Cc2ccc(F)cc2)s1` was -0.843%. With `Cc1ccc(CNC(=O)N(Cc2ccccc2F)C2CC2)cn1`, the cytotoxicity at 70.5 h is -1.38%.

In the case of `CCC(=O)NCc1cc(Br)c(OC)c(OC)c1`, the cytotoxicity at 70.5 h is -0.621%. Regarding `COc1ccccc1OCCN1CCCC(c2noc(C3CC3)n2)C1` (centres undefined), the cytotoxicity at 70.5 h was -0.413%. For `Cc1oc(C(=O)O)cc1S(=O)(=O)Nc1c(F)cccc1-n1cccn1` the value was -0.99%; for `Cc1cnc(C(=O)N2CCN3C[C@H](OCc4cccnc4)C[C@H]3C2)cn1`, -9.39%.

Turning to `CCS(=O)(=O)N1CCC2(CC1)CN(c1ccsc1)C(=O)CO2`, the cytotoxicity at 70.5 h is -11.6%. With `CCOC[C@@H]1CCC[C@@]12CN(Cc1cccnc1)CCO2`, the cytotoxicity at 70.5 h was -5.78%. Take `Cn1cc(C[C@H]2[C@H](O)CCN2C(=O)c2ccsc2)cn1`: the cytotoxicity at 70.5 h was -4.72%. The value for `Cn1cc(-c2cnc(N3CCOCC3)nc2)cc1C(=O)NC1CC1` was 23.6%. The value for `CC(C)NC(=O)[C@@H]1CN(Cc2nccs2)C[C@H]2OCC[C@H]21` was 36%. For `COCC1CN(C(=O)c2ccc(C)o2)Cc2nccn2C1` (centres undefined) the value was 14.4%; for `COCC(=O)N1CCN(CC2CC2)c2ncccc2C1`, 15.5%; for `CN(C)C(=O)CN1CCC2(CCCN(Cc3ccoc3)C2)C1=O` (centres undefined), -13.2%. Turning to `CC(C)C(=O)N1CCOC2(COCCN(c3ncccn3)C2)C1` (centres undefined), the cytotoxicity at 70.5 h is -11.8%. For `Cc1ccc(CN2CCC3(CCCN(S(C)(=O)=O)C3)C2)o1` (centres undefined) the value was -12.7%. For `CCN1CCc2nc(N3CCOCC3)nc(NC(C)C)c2C1` the value was -9.45%; for `Cc1ccc(CN2CCCC3(CCN(Cc4ccc(C)o4)C3)C2)o1` (centres undefined), -11.5%; for `CN(C)CC(=O)N1CCC2(CC1)COCCN(Cc1ccncc1)C2`, -8.72%. For `CN(C)C(=O)N1CCCC2(CCN(c3ccsc3)C2=O)C1` (centres undefined) the value was -6.16%. Consider `Cc1nc(NCC2CC2)nc2c1COCC21CCNC1` (centres undefined), for which the cytotoxicity at 70.5 h amounted to 5.46%. With `CC(C)N(C)Cc1cn2c(n1)CN(C(=O)c1ccc[nH]1)CC2`, the cytotoxicity at 70.5 h was -5.19%.

With `Cn1nccc1C(=O)N1CCN(C(=O)C2CC2)[C@@H]2CS(=O)(=O)C[C@@H]21`, the cytotoxicity at 70.5 h is -5.45%. The value for `CC(C)SCCn1ccc2[nH]c(=O)c(C#N)cc2c1=O` was -8.8%; that for `Cn1nc(CN2CCCN(C3CCCC3)CC2)c2c(Cl)cccc21` was -6.04%; that for `COc1cc2c(cc1C1CC(=O)NCc3nc(N(C)C)sc31)CCC2` (centres undefined) was 0.498%. In the case of `CCn1nc(C)c(CCn2ccnc2-c2cc3n(n2)CCNC3)c1C`, the cytotoxicity at 70.5 h was -0.934%. For `CCN(CCOc1ccc(F)cc1)C(=O)c1ccncc1Cl` the value was -2.29%; for `COCC(O)CNC(=O)c1cc(COc2ccc3c(c2)CCCC3)on1` (centres undefined), -4.42%. As for `CC(CCN1CCC(n2cc(CCO)nn2)CC1)c1ccccc1` (centres undefined), the cytotoxicity at 70.5 h was -8.84%. With `CCN1CC(CN(C)Cc2nc(-c3cccc(Cl)c3)oc2C)CC1=O` (centres undefined), the cytotoxicity at 70.5 h is -6.94%. For `O=C(CCc1cc(Cl)no1)N1CCN(CCn2cncn2)CC1`, the cytotoxicity at 70.5 h was -0.942%. On to `COc1cccc2c1OCC(NCCCOc1cccnc1)C2` (centres undefined), for which the cytotoxicity at 70.5 h was -5.15%. For `CCC(C)NC(=O)c1coc(COc2cccc(F)c2)n1` (centres undefined) the value was -3.12%; for `CC(=O)N1CCCC(C(=O)NCCc2nc(Cc3ccccc3)no2)C1` (centres undefined), -13.3%. The value for `CSCc1noc(CNC(=O)C2CCN(C(=O)C3CC3)CC2)n1` was -17.4%; that for `Cc1cc2nc(C(C)C)cc(N3CCC(O)CC3)n2n1` was -9.55%.

`COCCN(Cc1cnn(C)c1)CC1CCOC1` (centres undefined): the cytotoxicity at 70.5 h was -6.85%. The value for `CCc1c(C(=O)N2CCC3(CC(=O)NC3=O)C2)csc1C` (centres undefined) was -5.51%. The value for `CCN1CCN(C[C@@H]2CN(c3ncccc3F)C[C@@H]2CO)CC1` was 23.4%. For `NS(=O)(=O)c1ccc(F)c(C(=O)NCCSc2ccccn2)c1` the value was -4.06%; for `COCCCC1CCN([C@@H]2c3ccccc3C3(CCNCC3)[C@H]2O)CC1`, -1.24%; for `COc1cccc(-n2cc(-c3ccnc(N[C@@H](CO)C(C)C)n3)cn2)c1`, 13.3%. Turning to `Cc1cccc2[nH]c(C3CCN(C(=O)c4cnc[nH]c4=O)CC3)nc12`, the cytotoxicity at 70.5 h is -1.84%.

Consider `CC(C)(C)C(=O)N1CCCC1c1ccc(C(=O)N2CCOCC2)s1` (centres undefined), for which the cytotoxicity at 70.5 h amounted to 16.2%. Take `CCNc1ncc(C(=O)NCCNc2ccncc2C)cn1`: the cytotoxicity at 70.5 h was 3.69%.

Consider `COc1ccc(Cc2nc3c([nH]2)CC(C)(C)CNC3=O)cc1OC`, for which the cytotoxicity at 70.5 h was -8.64%. As for `CCCc1cc(C(=O)N2CCC3(CC2)CN(CCN(C)C)C(=O)O3)no1`, the cytotoxicity at 70.5 h was -0.0862%.

With `Cc1noc(C)c1CN1C[C@@H]2COC[C@@H](C(=O)N3CCCCO3)[C@@H]2C1`, the cytotoxicity at 70.5 h is -8.21%. For `Cc1cc(CN2C[C@@H]3COC[C@H](C(=O)N4CCCCO4)[C@@H]3C2)oc1C` the value was -11%.

For `Cc1cc(CN2C[C@@H]3COC[C@@H](C(=O)N4CCCCO4)[C@@H]3C2)oc1C`, the cytotoxicity at 70.5 h is -6.96%. For `Cc1ccsc1C(=O)N1CC[C@@H](N(C)C)[C@@H]1Cc1cnn(C)c1` the value was -11.2%; for `CN(C)[C@@H]1CCN(C(=O)Cc2cccs2)[C@H]1Cc1cnn(C)c1`, -8.18%; for `CN(C)C(=O)c1cnc2n1CCN(Cc1ccc3c(c1)OCO3)C2`, -7.97%. The value for `Cn1cc(-c2cnc(N3CCOCC3)nc2)cc1C(=O)NCCC#N` was -9.71%; that for `O=C(c1ccco1)N1CCO[C@@H]2CN(CC3CC3)CC[C@@H]2C1` was 28%. Regarding `Cc1cc(C(=O)N2CCO[C@H]3[C@H](Oc4ccccn4)CC[C@@H]32)c(C)[nH]1`, the cytotoxicity at 70.5 h is -8.01%.

Consider `Cc1ccc(C(=O)N2CC[C@H]3[C@@H]2CCC(=O)N3c2cccnc2)o1`, for which the cytotoxicity at 70.5 h is -13.5%. As to `c1csc(CN2CCCn3nnc(COCC4CC4)c3C2)n1`, the cytotoxicity at 70.5 h is -11%. Regarding `COCC1CN(C(=O)c2cccc(C)n2)Cc2nccn2C1` (centres undefined), the cytotoxicity at 70.5 h was -10.2%. For `Cc1cccc(CN2CCCC3(CCN(CC(=O)N(C)C)C3=O)C2)n1` (centres undefined) the value was -13.1%; for `Cn1cc(CN2C[C@@H]3COC[C@]3(CNC(=O)c3ccco3)C2)cn1`, -10.1%; for `Cc1cc(CN2C[C@@H]3COC[C@]3(CNC(=O)c3ccco3)C2)no1`, -7.96%. The value for `COCCNC(=O)[C@H]1C[C@@H]2CCN(CCc3ccccc3)C[C@@H]2O1` was -4.71%. For `COCCC(=O)N1CC2(CCN(Cc3ccccc3Cl)CC2)C1` the value was 12.5%. For `CN(C)CCN1C(=O)CC[C@@H]2[C@H]1CCN2Cc1cccc(C#N)c1`, the cytotoxicity at 70.5 h is -8.56%. For `Cc1ccc(C(=O)N2CC[C@@H](N(C)C)[C@@H]2Cc2cnn(C)c2)cn1` the value was -10.1%; for `N#Cc1cccc(CN2CC[C@@H]3[C@@H]2CC(=O)N3Cc2ccncc2)c1`, -3.67%. For `COCCN1C[C@@H]2[C@@H](OC)CCN(S(=O)(=O)c3cccnc3)[C@@H]2C1` the value was -12.3%; for `Cc1cncc(C(=O)N2CCO[C@H]3[C@H](Oc4ccccn4)CC[C@@H]32)c1`, -12.4%. As to `Cn1cccc1C(=O)NCc1cn2c(n1)CN(Cc1cccnc1)CC2`, the cytotoxicity at 70.5 h is -12.8%. For `CN(C)CCN1CCC2(CCCN(Cc3cccn3C)C2)C1=O` (centres undefined) the value was -11.1%. Consider `O=C(C1CCCO1)N1CCC2(CC1)COCCN(Cc1ccncc1)C2` (centres undefined), for which the cytotoxicity at 70.5 h is -9.52%. The value for `Cc1ccc2c(n1)N(CCN(C)C)CCN(C(=O)c1cscn1)C2` was -7.14%; that for `c1cncc(COC[C@H]2CC[C@H]3[C@H](CCN3Cc3nccs3)O2)c1` was -0.559%. `c1ccc(CN2CC[C@@H]3O[C@@H](COCCN4CCCC4)CC[C@@H]32)nc1`: the cytotoxicity at 70.5 h is -13.6%. With `Cc1ccc(CN2CCOC3(COCCN(Cc4ccncc4)C3)C2)o1` (centres undefined), the cytotoxicity at 70.5 h is -13.7%. Consider `CN(C)CCN1CCOCC2(C1)CN(Cc1ccco1)CCO2` (centres undefined), for which the cytotoxicity at 70.5 h is -17.1%. Turning to `Cc1cc(C)cc(CN2C[C@H]3COC[C@H](N4CCN(C)CC4)[C@H]3C2)c1`, the cytotoxicity at 70.5 h was -6.19%. In the case of `Fc1cccc(N2CCCC3(CN(Cc4cccnc4)CCO3)C2)c1` (centres undefined), the cytotoxicity at 70.5 h was -6.89%.
